Results as given in patent US11591311B2, “3-oxo-6-heteroaryl-2-phenyl-2,3-dihydropyridazine-4-carboxamides” (priority 2017, dated 2023).

Columns and labels:
AHR [1] = target: T1, AHR (Homo sapiens, UniProt P35869); test: In vitro assay 3: AHR-regulated CYP1A1 expression in human cell line (U937, qPCR); format: cell-based; conditions: human monocytic U937 cells, CYP1A1 expression induced with 200 μM KA, 6 hours, quantitative PCR; read-out: Assay 3: Hum CYP1A1 Antagonism IC50
T1 construct: U87 glioblastoma cells (ATCC) endogenously expressing AHR; host or cells: U87 glioblastoma cells, stably transfected with DRE-firefly luciferase and renilla reporter constructs
T1 sequence (P35869 11-848): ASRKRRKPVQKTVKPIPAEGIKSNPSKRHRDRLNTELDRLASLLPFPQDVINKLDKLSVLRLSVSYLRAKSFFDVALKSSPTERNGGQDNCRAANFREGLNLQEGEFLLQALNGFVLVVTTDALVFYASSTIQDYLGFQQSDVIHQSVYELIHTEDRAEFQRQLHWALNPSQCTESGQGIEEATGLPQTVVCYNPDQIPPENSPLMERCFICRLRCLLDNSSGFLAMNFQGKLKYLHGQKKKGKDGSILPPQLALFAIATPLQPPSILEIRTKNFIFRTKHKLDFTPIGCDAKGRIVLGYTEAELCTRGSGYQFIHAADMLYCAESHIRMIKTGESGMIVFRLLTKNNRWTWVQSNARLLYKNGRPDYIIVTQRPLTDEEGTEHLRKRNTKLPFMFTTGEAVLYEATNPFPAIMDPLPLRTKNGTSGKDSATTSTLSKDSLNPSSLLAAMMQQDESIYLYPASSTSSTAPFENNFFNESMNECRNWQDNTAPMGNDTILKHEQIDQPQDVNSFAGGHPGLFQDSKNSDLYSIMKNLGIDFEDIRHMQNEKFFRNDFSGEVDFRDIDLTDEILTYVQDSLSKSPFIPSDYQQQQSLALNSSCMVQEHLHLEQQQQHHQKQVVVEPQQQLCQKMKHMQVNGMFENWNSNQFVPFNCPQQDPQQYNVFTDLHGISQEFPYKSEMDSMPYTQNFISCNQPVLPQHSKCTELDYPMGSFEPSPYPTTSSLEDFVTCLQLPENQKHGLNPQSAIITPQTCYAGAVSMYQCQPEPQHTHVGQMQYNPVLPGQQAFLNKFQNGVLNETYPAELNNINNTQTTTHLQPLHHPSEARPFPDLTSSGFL
Protocol: In Vitro Assay 3: AHR-Regulated CYP1A1 Expression in Human Cell Line
To assess the AHR inhibitory activity of the substances described in this application, the ability thereof to antagonise ligand-induced AHR gene regulation in a dose-dependent manner was quantified. For this purpose, quantitative PCR analysis was used to determine expression of the AHR-regulated gene CYP1A1 in a human monocytic U937 cell line upon stimulation with 200 μM KA in the presence and absence of AHR inhibitor. […] CYP1A1 expression was induced with 200 μM KA (positive control) in the presence or absence of the substances for 6 hours. Human U937 cells were typically incubated with eight different concentrations of the substances (1 nM, 3 nM, 10 nM, 30 nM, 100 nM, 300 nM, 1 μM and 3 μM) and analyzed in duplicate on the same microtitre plate. […] Unstimulated cells were used as the negative control. Taqman probes for human CYP1A1 (Hs01054797_g1) and human HPRT (Hs02800695_m1) were used to analyze fold expression of CYP1A1 of HPRT. Quantitation was performed on a Taqman SDS7900HT.

AHR [2] = target: T1, AHR; test: In vitro assay 1: AHR-luc transactivation assay, antagonism in human cell line (U87 glioblastoma cells prestimulated with kynurenic acid); format: cell-based
Protocol: Transactivation Assay in Human Cell Line (In Vitro Assays 1 and 2)
Transactivation assays were carried out in U87 glioblastoma cells (ATCC) endogenously expressing AHR. In addition the cells were stably transfected with an AHR inducible firefly luciferase reporter gene construct that carried AHR-binding sites (DRE) in its promoter and a renilla reporter gene construct with constitutively active promoter. Kynurenic acid is an endogenous AHR activating ligand and was used to prestimulate test cells prior to testing the antagonistic properties of compounds.
In Vitro Assay 1: Antagonism in Human Cell Line
Cells in medium (tryptophan free RPMI, 1% FCS, 2 mM Glutamine) supplemented with 150 μM kynurenic acid were grown for 20 hours in absence (negative control) or presence of increasing concentrations of test compounds (typical dilutions: 72 pmol/L, 0.25 nmol/L, 0.89 nmol/L; 3.1 nmol/L, 11 nmol/L, 38 nmol/L, 130 nmol/L, 470 nmol/L, 1.6 μmol/L, 5.7 μmol/L and 20 μmol/L in duplicates). As positive inhibition control cells supplemented with 150 μM kynurenic acid were incubated in presence of 5 μM Staurosporin. Normalization was done by positive and negative controls.
Firefly luciferase and Renilla activity was determined by the DualGlo Luciferase Assay System (Promega, #2920). Renilla activity was used to assess toxic effects of compounds.

## C[C@@H](CO)NC(=O)c1cc(-c2ccc(C(F)(F)F)nc2)nn(-c2ccccc2)c1=O [Example 5, N-[(2S)-1-Hydroxypropan-2-yl]-3-oxo-2-phenyl-6-[6-(trifluoromethyl)pyridin-3-yl]-2,3-dihydropyridazine-4-carboxamide]
AHR [1]
  IC50: 281 nM
AHR [2]
  IC50: 163 nM

## C[C@@H](CO)NC(=O)c1cc(-c2ccc(C(F)(F)F)nc2)nn(-c2cc(F)cc(F)c2)c1=O [Example 1, 2-(3,5-Difluorophenyl)-N-[(25)-1-hydroxypropan-2-yl]-3-oxo-6-[6-(trifluoromethyl)pyridin-3-yl]-2,3-dihydropyridazine-4-carboxamide]
AHR [1]
  IC50: 5.29 nM
AHR [2]
  IC50: 7.14 nM

## C[C@@H](NC(=O)c1cc(-c2ccc(N(C)C)nc2)nn(-c2cccc(F)c2)c1=O)C(C)(C)O [Example 19, 6-[6-(Dimethylamino)pyridin-3-yl]-2-(3-fluorophenyl)-N-[(2R)-3-hydroxy-3-methylbutan-2-yl]-3-oxo-2,3-dihydropyridazine-4-carboxamide]
AHR [1]
  IC50: 147 nM
AHR [2]
  IC50: 91.9 nM

## C[C@@H](CO)NC(=O)c1cc(-c2ccc(C(F)(F)F)nc2)nn(-c2cc(F)cc(Cl)c2)c1=O [Example 2, 2-(3-Chloro-5-fluorophenyl)-N-[(2S)-1-hydroxypropan-2-yl]-3-oxo-6-[6-(trifluoromethyl)pyridin-3-yl]-2,3-dihydropyridazine-4-carboxamide]
AHR [1]
  IC50: 36.8 nM
AHR [2]
  IC50: 23.5 nM

## C[C@@H](CO)NC(=O)c1cc(-c2ccc(C(F)(F)F)nc2)nn(-c2cccc(Cl)c2)c1=O [Example 4, 2-(3-Chlorophenyl)-N-[(2S)-1-hydroxypropan-2-yl]-3-oxo-6-[6-(trifluoromethyl)pyridin-3-yl]-2,3-dihydropyridazine-4-carboxamide]
AHR [1]
  IC50: 222 nM
AHR [2]
  IC50: 128 nM

## C[C@@H](CO)NC(=O)c1cc(-c2ccc(C(F)F)nc2)nn(-c2cccc(F)c2)c1=O [Example 13, 6-[6-(Difluoromethyl)pyridin-3-yl]-2-(3-fluorophenyl)-N-[(2S)-1-hydroxypropan-2-yl]-3-oxo-2,3-dihydropyridazine-4-carboxamide]
AHR [1]
  IC50: 198 nM
AHR [2]
  IC50: 157 nM

## C[C@@H](CO)NC(=O)c1cc(-c2cnc(C(F)(F)F)nc2)nn(-c2cccc(F)c2)c1=O [Example 11, 2-(3-Fluorophenyl)-N-[(2S)-1-hydroxypropan-2-yl]-3-oxo-6-[2-(trifluoromethyl)pyrimidin-5-yl]-2,3-dihydropyridazine-4-carboxamide]
AHR [1]
  IC50: 326 nM
AHR [2]
  IC50: 495 nM

## O=C(N[C@H]1CCC[C@@H]1O)c1cc(-c2ccc(C(F)(F)F)nc2)nn(-c2cccc(F)c2)c1=O [Example 6, 2-(3-Fluorophenyl)-N-[(1S,2S)-2-hydroxycyclopentyl]-3-oxo-6-[6-(trifluoromethyl)pyridin-3-yl]-2,3-dihydropyridazine-4-carboxamide]
AHR [1]
  IC50: 8.32 nM
AHR [2]
  IC50: 13.4 nM

## COc1ccc(-c2cc(C(=O)N[C@@H](C)CO)c(=O)n(-c3cccc(F)c3)n2)cn1 [Example 21, 2-(3-Fluorophenyl)-N-[(2S)-1-hydroxypropan-2-yl]-6-(6-methoxypyridin-3-yl)-3-oxo-2,3-dihydropyridazine-4-carboxamide]
AHR [1]
  IC50: 440 nM
AHR [2]
  IC50: 128 nM

## C[C@@H](NC(=O)c1cc(-c2ccc(C(F)F)nc2)nn(-c2cccc(F)c2)c1=O)C(C)(C)O [Example 22, 6-[6-(Difluoromethyl)pyridin-3-yl]-2-(3-fluorophenyl)-N-[(2R)-3-hydroxy-3-methylbutan-2-yl]-3-oxo-2,3-dihydropyridazine-4-carboxamide]
AHR [1]
  IC50: 186 nM
AHR [2]
  IC50: 62.6 nM

## C[C@@H](CO)NC(=O)c1cc(-c2ccc(C(F)(F)F)nc2)nn(-c2cccc(F)c2)c1=O [Example 18, 2-(3-Fluorophenyl)-N-[(2S)-1-hydroxypropan-2-yl]-3-oxo-6-[6-(trifluoromethyl)pyridin-3-yl]-2,3-dihydropyridazine-4-carboxamide]
AHR [1]
  IC50: 31.4 nM
AHR [2]
  IC50: 33.8 nM

## C[C@H](NC(=O)c1cc(-c2ccc(C(F)(F)F)nc2)nn(-c2cccc(F)c2)c1=O)C(C)(C)O [Example 9, 2-(3-Fluorophenyl)-N-[(2S)-3-hydroxy-3-methylbutan-2-yl]-3-oxo-6-[6-(trifluoromethyl)pyridin-3-yl]-2,3-dihydropyridazine-4-carboxamide]
AHR [1]
  IC50: 25.3 nM
AHR [2]
  IC50: 16.2 nM

## O=C(N[C@H]1COC[C@@H]1O)c1cc(-c2ccc(C(F)F)nc2)nn(-c2cccc(F)c2)c1=O [Example 38, 6-[6-(Difluoromethyl)pyridin-3-yl]-2-(3-fluorophenyl)-N-[(3S,4R)-4-hydroxytetrahydrofuran-3-yl]-3-oxo-2,3-dihydropyridazine-4-carboxamide]
AHR [2]
  IC50: 370 nM

## O=C(N[C@H]1CCC[C@H]1O)c1cc(-c2ccc(C(F)(F)F)nc2)nn(-c2cccc(F)c2)c1=O [Example 8, 2-(3-Fluorophenyl)-N-[(1S,2R)-2-hydroxycyclopentyl]-3-oxo-6-[6-(trifluoromethyl)pyridin-3-yl]-2,3-dihydropyridazine-4-carboxamide]
AHR [1]
  IC50: 10.3 nM
AHR [2]
  IC50: 6.28 nM

## C[C@@H](CO)NC(=O)c1cc(-c2ccc(C(F)(F)F)nc2)nn(-c2ccc(F)c(F)c2)c1=O [Example 3, 2-(3,4-Difluorophenyl)-N-[(2S)-1-hydroxypropan-2-yl]-3-oxo-6-[6-(trifluoromethyl)pyridin-3-yl]-2,3-dihydropyridazine-4-carboxamide]
AHR [2]
  IC50: 623 nM

## N#C[C@@H](CO)NC(=O)c1cc(-c2ccc(C(F)F)nc2)nn(-c2cccc(F)c2)c1=O [Example 32, N-[(1S)-1-Cyano-2-hydroxyethyl]-6-[6-(difluoromethyl)pyridin-3-yl]-2-(3-fluorophenyl)-3-oxo-2,3-dihydropyridazine-4-carboxamide]
AHR [2]
  IC50: 55.9 nM

## C[C@@H](NC(=O)c1cc(-c2ccc(C(F)(F)F)nc2)nn(-c2cccc(F)c2)c1=O)C(C)(C)O [Example 7, 2-(3-Fluorophenyl)-N-[(2R)-3-hydroxy-3-methylbutan-2-yl]-3-oxo-6-[6-(trifluoromethyl)pyridin-3-yl]-2,3-dihydropyridazine-4-carboxamide]
AHR [1]
  IC50: 48.1 nM
AHR [2]
  IC50: 25.8 nM

## O=C(N[C@H]1CCC[C@H]1O)c1cc(-c2ccc(C(F)F)nc2)nn(-c2cccc(F)c2)c1=O [Example 30, 6-[6-(Difluoromethyl)pyridin-3-yl]-2-(3-fluorophenyl)-N-[(1S,2R)-2-hydroxycyclopentyl]-3-oxo-2,3-dihydropyridazine-4-carboxamide]
AHR [2]
  IC50: 21.8 nM

## CC(C)(O)CNC(=O)c1cc(-c2ccc(C(F)(F)F)nc2)nn(-c2cccc(F)c2)c1=O [Example 10, 2-(3-Fluorophenyl)-N-(2-hydroxy-2-methylpropyl)-3-oxo-6-[6-(trifluoromethyl)pyridin-3-yl]-2,3-dihydropyridazine-4-carboxamide]
AHR [1]
  IC50: 110 nM
AHR [2]
  IC50: 73.2 nM

## O=C(N[C@H]1COC[C@H]1O)c1cc(-c2ccc(C(F)F)nc2)nn(-c2cccc(F)c2)c1=O [Example 33, 6-[6-(Difluoromethyl)pyridin-3-yl]-2-(3-fluorophenyl)-N-[(3S,4S)-4-hydroxyoxolan-3-yl]-3-oxo-2,3-dihydropyridazine-4-carboxamide]
AHR [2]
  IC50: 75.1 nM
